Several values for one entry are separate records, joined by “and”; a condition that tells them apart may be missing. Identical values can stand only once. Like-named read-outs stand apart in the source and are kept apart here. One block for each compound: values may come before it.
Assays:
thrombin [1] = target: T1, thrombin (Bos taurus, UniProt P00735)
Method: Additional cartridges were prepared in which specific inhibitors were combined with the thrombin solution, the thrombin inhibitor/thrombin solution deposited in the cartridge, and dried. […] The TDS reagent (3 microliters) was applied to cartridges and dried. Fibrinogen test samples for these cartridges comprised 40 μL of the fibrinogen working solution combined with 7 μL of the plastic sphere solution.

thrombin [2] = assay: One or both of the two assays (wet and cartridge), summary of effective thrombin inhibitors; format: biochemical; settings: wet and/or cartridge assay; result in words
thrombin [3] = target: T1, thrombin; assay: Cartridge assay (CoaguChek Plus), dried thrombin reagent in cartridge, inhibitor added to sample; format: biochemical, bovine; set-up: adding thrombin (Calbiochem 605157 bovine) to the HEPES Base solution; purchased Calbiochem 605157; settings: for Concentration in reagent found to be effective: clotting time above 10 s and below 300 s for fibrinogen 50 to 400 mg/dL, under 10 s without inhibitor
Method: An assay cartridge as described above was constructed in which the reagent chamber was coated with a dried reagent containing thrombin in a HEPES buffer matrix. Liquid samples containing latex beads as blood cell surrogates and various levels of fibrinogen were introduced into the cartridge contained within a CoaguChek™ Plus device. Just prior to introducing a sample into the device, the particular thrombin modulator being tested was added to the sample. A variety of thrombin modulators were tested in this manner.
A HEPES Base solution, pH=7.4, was formed from the following ingredients:
A thrombin solution was formed by adding thrombin (Calbiochem 605157 bovine) to the HEPES Base solution, the resulting concentration being 67 units/mL thrombin.
A 10% solution by weight of polystyrene spheres with a mean diameter of 3.27 μm (Bang Laboratories P0032700) was utilized as a blood cell surrogate for plasma or synthetic blood solutions “plastic sphere solution”).
Test cartridges were prepared by applying 3 microliters of the thrombin solution thereto and drying the solution. For each sample, a fresh “thrombin” cartridge was utilized.
Cartridges containing the dried thrombin reagent were utilized for the following experiments. Standard solutions were prepared in accordance with Example 3, except the thrombin inhibitor concentration was fixed, and the fibrinogen concentrations varied.

thrombin [4] = assay: Wet screening assay for thrombin inhibitors with BBL Fibrometer (clotting time of fibrinogen solutions); format: biochemical, human plasma or bovine; settings: for Clotting Time (average), n = 2: 15 mg/mL benzamidine (final concentration); for Found useful/effective as thrombin inhibitor in fibrometer wet assay: result in words; for Clot Time: 200 μL 0.5 mg/mL D.S. working solution, 50 μL 100 U/mL thrombin
Method: Materials and Methods: A phosphate buffered saline (PBS)-albumin solution was formed as follows:
2) 100 U/mL thrombin working solution; thrombin was obtained from Calbiochem (605206—human plasma, or 605157—bovine); and
3) fibrinogen working solutions having fibrinogen concentrations ranging from between 6 and 24 mg/mL fibrinogen; fibrinogen was obtained from Calbiochem (341578).
Screening Assay Procedure Using Fibrometer: A BBL Fibrometer was utilized to determine clotting times of test solutions. Test solutions were formed by adding the following components in the following order:
1. 200 μL D.S. working solution,
2. 50 μL thrombin working solution,
3. 50 μL fibrinogen working solution.
Immediately upon addition of the third component (i.e., the fibrinogen working solution), the fibrometer was activated, resulting in the probe being released into the vessel containing the reaction solution. The probe was agitated until sufficient resistance to motion was reached corresponding to a predetermined degree of clotting. A display indicated time from activation of the probe until the predetermined degree of clotting was reached.
Using the method of Example 1, 15 mg/mL benzamidine (Sigma B6506) in the PBS-albumin solution (final concentration) was contacted with samples containing varying amounts of fibrinogen.

- Average Clotting Time After Application To Inlet Port Of Cartridge (n = 2) (thrombin [1]; TA reagent dried in cartridge (67 units/mL thrombin, 20 10 g/dL aprosulate as printed), fibrinogen 25.5 mg/mL (so in the source)): 275 s
- Average Clotting Time After Application To Inlet Port Of Cartridge (n = 2) (thrombin [1]; TA reagent dried in cartridge, fibrinogen 102 mg/mL (so in the source)): 134 s
- Average Clotting Time After Application To Inlet Port Of Cartridge (n = 2) (thrombin [1]; TA reagent dried in cartridge, fibrinogen 204 mg/mL (so in the source)): 41 s
- Average Clotting Time After Application To Inlet Port Of Cartridge (n = 2) (thrombin [1]; TA reagent dried in cartridge, fibrinogen 408 mg/mL (so in the source)): 24 s
- Clotting Time After Application To Inlet Port Of Cartridge Containing Thrombin Reagent (thrombin [3]; 43 mg/mL aprosulate, fibrinogen 76 mg/mL (so in the source)): 149.1 s
- Clotting Time After Application To Inlet Port Of Cartridge Containing Thrombin Reagent (thrombin [3]; 43 mg/mL aprosulate, fibrinogen 153 mg/mL (so in the source)): 85.5 s
- Clotting Time After Application To Inlet Port Of Cartridge Containing Thrombin Reagent (thrombin [3]; 43 mg/mL aprosulate, fibrinogen 306 mg/mL (so in the source)): 21.4 s
Compound: O=C(NCCCNC(=O)[C@H](OS(=O)(=O)O)[C@@H](OS(=O)(=O)O)[C@H](O[C@@H]1O[C@H](COS(=O)(=O)O)[C@H](OS(=O)(=O)O)[C@H](OS(=O)(=O)O)[C@H]1OS(=O)(=O)O)[C@@H](COS(=O)(=O)O)OS(=O)(=O)O)[C@H](OS(=O)(=O)O)[C@@H](OS(=O)(=O)O)[C@H](O[C@@H]1O[C@H](COS(=O)(=O)O)[C@H](OS(=O)(=O)O)[C@H](OS(=O)(=O)O)[C@H]1OS(=O)(=O)O)[C@@H](COS(=O)(=O)O)OS(=O)(=O)O [Aprosulate, aprosulate]
- Thrombin inhibitor found to be effective (thrombin [2]): effective

Compound: Cn1c(=O)c2c(ncn2C)n(C)c1=O [Caffeine, caffeine]
- Thrombin inhibitor found to be effective (thrombin [2]): effective
- Clotting Time After Application To Inlet Port Of Cartridge Containing Thrombin Reagent (thrombin [3]; […] caffeine, fibrinogen 100 mg/mL (so in the source)): 88.8 s
- Clotting Time After Application To Inlet Port Of Cartridge Containing Thrombin Reagent (thrombin [3]; […] caffeine, fibrinogen 200 mg/mL (so in the source)): 30.0 s
- Clotting Time After Application To Inlet Port Of Cartridge Containing Thrombin Reagent (thrombin [3]; […] caffeine, fibrinogen 400 mg/mL (so in the source)): 24.8 s

Compound: N=C(N)c1ccccc1 [benzamidine]
- Clotting Time (average), n = 2 (thrombin [4]; sample fibrinogen 100 mg/dL): 242 s
- Clotting Time (average), n = 2 (thrombin [4]; sample fibrinogen 200 mg/dL): 139 s
- Clotting Time (average), n = 2 (thrombin [4]; sample fibrinogen 400 mg/dL): 93 s
- Thrombin inhibitor found to be effective (thrombin [2]): effective

Compound: Gly-Gly-Arg
- Thrombin inhibitor found to be effective (thrombin [2]): effective
- Concentration in reagent found to be effective (thrombin [3]): 0.85 mg/mL and 1.3 mg/mL

Compound: Gly-Pro-Ala
- Thrombin inhibitor found to be effective (thrombin [2]): effective

- Clotting Time After Application To Inlet Port Of Cartridge Containing Thrombin Reagent (thrombin [3]; […] Gly-Pro-Arg peptide, fibrinogen 100 mg/mL (so in the source)): 239.6 s
- Clotting Time After Application To Inlet Port Of Cartridge Containing Thrombin Reagent (thrombin [3]; […] Gly-Pro-Arg peptide, fibrinogen 102 mg/mL (so in the source)): 44.1 s
- Clotting Time After Application To Inlet Port Of Cartridge Containing Thrombin Reagent (thrombin [3]; […] Gly-Pro-Arg peptide, fibrinogen 204 mg/mL (so in the source)): 9.9 s
Compound: Gly-Pro-Arg

Compound: Polyanetholesulfate
- Thrombin inhibitor found to be effective (thrombin [2]): effective

Compound: Polyvinylsulfate
- Thrombin inhibitor found to be effective (thrombin [2]): effective

Compound: dextran sulfate
- Found useful/effective as thrombin inhibitor in fibrometer wet assay (thrombin [4]; listed as dextran sulfate (50,000 Da—Dextralip 50)): effective

- Concentration in reagent found to be effective (thrombin [3]): 5 mg/mL
Compound: dextran sulfate [Dextran Sulfate-5,000 Da]

Compound: dextran sulfate [dextran sulfate (5,000-50,000 MW)]
- Thrombin inhibitor found to be effective (thrombin [2]): effective

- Clotting Time After Application To Inlet Port Of Cartridge (thrombin [1]; TDS reagent dried in cartridge (67 units/mL thrombin, 57 mg/mL dextran sulfate 10,000 Da), fibrinogen 198 mg/mL (so in the source)): 40.0 s
- Clotting Time After Application To Inlet Port Of Cartridge (thrombin [1]; TDS reagent dried in cartridge (67 units/mL thrombin, 57 mg/mL dextran sulfate 10,000 Da), fibrinogen 396 mg/mL (so in the source)): 26.7 s
- Clotting Time After Application To Inlet Port Of Cartridge (thrombin [1]; TDS reagent dried in cartridge (67 units/mL thrombin, 57 mg/mL dextran sulfate 10,000 Da, 3 microliters), fibrinogen 99 mg/mL (so in the source)): 69.6 s
- Clotting Time After Application To Inlet Port Of Cartridge Containing Thrombin Reagent (thrombin [3]; 21 mg/mL dextran sulfate (10,000 Da), fibrinogen 100 mg/mL (so in the source) in combined assay solution): 157.5 s
- Clotting Time After Application To Inlet Port Of Cartridge Containing Thrombin Reagent (thrombin [3]; 21 mg/mL dextran sulfate (10,000 Da), fibrinogen 102 mg/mL (so in the source)): 81.9 s
- Clotting Time After Application To Inlet Port Of Cartridge Containing Thrombin Reagent (thrombin [3]; 21 mg/mL dextran sulfate (10,000 Da), fibrinogen 204 mg/mL (so in the source)): 28.6 s
Compound: dextran sulfate [dextran sulfate (10,000 Da)]
- Clot Time (thrombin [4]; final assay fibrinogen 100 mg/dL, about 0.6 s without dextran sulfate): 22.8 s
- Clot Time (thrombin [4]; final assay fibrinogen 200 mg/dL): 11.8 s
- Clot Time (thrombin [4]; final assay fibrinogen 250 mg/dL): 9.8 s
- Clot Time (thrombin [4]; final assay fibrinogen 400 mg/dL): 1.2 s
- Found useful/effective as thrombin inhibitor in fibrometer wet assay (thrombin [4]): useful thrombin inhibitor reagent

— patent US6448024B1, “Method, reagent, cartridge, and device for determining fibrinogen” (Roche Diagnostics Corporation, priority 2000, dated 2002)
